In patent EP0345906B1, “Unique elastase induced fibrinogen cleavage site antigens” (MERCK & CO. INC., priority 1988, dated 1989):
Where “and” joins values, the source holds several entries; their conditions need not be identical. Equal entries are not always repeated.

Experiments:
Guinea Pig (#3) = assay: Antibody specificity radioimmunoassay, guinea pig antiserum; assay type: binding; conditions: probe ¹⁵I-tyrosyl-Aα 1-21
[1] = tested on: Rabbit antiserum prepared against the Aα 17-21 immunogen; assay: Antibody specificity radioimmunoassay, rabbit antiserum; assay type: binding; conditions: antiserum 1:1,000; probe ¹⁵I-tyrosyl-Aα 1-21; amount in 100 ml aliquot
Method: Antibody specificity was determined by evaluating the ability of unlabelled peptides, specificity probes, of varying length, see Example 6, to inhibit the binding of the Aα 1-21radioactive probe. Rabbit antiserum prepared against the Aα 17-21 immunogen described in Example 2 was diluted in assay buffer, see Example 6, at a dilution of 1:1,000. The specificity peptides of Example 5 were diluted in assay buffer at concentrations ranging from 1.6 x 10⁻¹⁰ M to 1 x 10⁻⁵ M. One hundred ml of each dilution was added to 100 ml of antiserum and 100 ml of radioactive probe. This represents specificity probe peptide in concentrations ranging from 0.016 picomoles to 1.0 nanomoles in the 100 ml aliquot used in the assay. The radioactive probe […], see Example 5, was diluted in assay buffer to yield approximately 20,000 cpm per 100 ml aliquot, the amount used per sample or control. The assay was set up in a volume of 300 ml, with the volume made up where necessary with assay buffer. […]
The antibody-free control and the zero-peptide antibody control are counted to determine the 0% bound and the 100% bound values respectively. Radioactivity was determined using a gamma counter and standard techniques known in the art. The samples containing the test peptides are then counted and the amount of radioactivity associated with the antibody-free control subtracted from each. […]

[2] = tested on: Whole Blood of PiZZ and Normal Individuals; assay: A23187-stimulated production of fibrinogen cleavage peptide in blood of PiZZ and normal individuals; assay type: cell-based, human; design: dose or concentration left out as unconfirmed; conditions: 37° for 25 minutes, one value per individual
Method: Heparinized venous blood was drawn from four individuals who process the PiZZ phenotype, deficient for alpha-1 proteinase inhibitor. Blood was also collected from two normal volunteers. Calcium ionophore A23187 was added to replicate aliquots of the freshly drawn blood to a final concentration of 150 mM. The blood was incubated at 37° for 25 minutes, the plasma collected and assayed cleavage peptide.
Values are expressed as pM Aα 17-21 epitope containing peptide produced per ml of plasma. The blood samples derived from the four individuals who were genetically deficient in alpha-1 proteinase inhibitor produced greater amounts of peptide than did those derived from the normal volunteers. Under basal conditions no fibrinogen cleavage products could be detected in the blood of any of the donors.

whole human blood = assay: In vitro production of Aα 17-21 epitope containing peptide in human blood, effect of ionophore concentration; assay type: cell-based; design: Aα 17-21 Epitope Containing (picomoles per ml blood): unit of the concentration uncertain; conditions: for Aα 17-21 Epitope Containing (picomoles per ml blood): 15 minutes at 37°C
Method: The radioimmunoassay was conducted in a total volume of 300 ml with all dilutions carried out in assay buffer, Example 6. Standard solutions were prepared at concentrations in the range of 1 x 10⁻¹⁰M to 2 x 1O⁻⁸M which represents amounts of peptide ranging from 0.01 picomoles to 2.0 picomoles in the 100 ml aliquot used in the assay. The assay included antibody-free controls to measure non-specific binding, and controls containing antibody and probe without added standard samples or unknown samples to determine the control level of peptide binding. To 100 ml of buffer, standard sample or unknown was added, 100 ml of specific antiserum from Examples 2 and 7, diluted 1:1,000 in assay buffer. This was followed by the addition of […] of radioactive probe, 125I-Tyrosyl-Aα 1-21 fibrinogen peptide, diluted in assay buffer to yield approximately 15,000 to 20,000 cpm per 100 ml aliquot. The assay was incubated overnight at 4°C and the non-antibody-bound radioactive probe was separated from antibody-bound probe by adsorption onto dextran-coated activated charcoal, see Example 7. Each assay included charcoal-free controls, to which 1 ml PBS was added for the determination of total counts. Radioactivity was determined using a gamma counter and standard techniques known in the art.
The antibody-free control and the zero-peptide antibody control were counted to determine the 0% bound and 100% bound values respectively. The assay standards are then counted and divided by the antibody control to determine the percent bound and a standard curve was generated. When the percent bound is plotted as a function of the logarithem of the amount of peptide in the standard, a sigmoidal curve is generated which is close to linear between the limits of 80% bound and 20% bound. Unknowns are counted, their percent of control calculated and they are compared to the standard curve to determine the amount of peptide present in the sample. Only those unknowns with values between 80% and 20% of control binding are considered valid.
Duplicate 1.0 ml aliquots of freshly-drawn heparinized vaccutainers containing 50 u per ml whole human blood were incubated for 15 minutes at 37°C in the presence of calcium ionophore A23187 at concentrations ranging up to 200 mM. The calcium ionophore was dissolved in dimethyl sulfoxide (DMSO) with the DMSO concentration in blood kept constant at 0.2%. Following incubation the aliquots were placed on ice, centrifuged and the plasma collected. Plasma aliquots (400 ml) were removed and placed in 12 x 75 mm glass tubes and 1200 ml chilled ethanol was added to precipitate the protein. The sample was centrifuged and 800 ml of the supernatant fluid was removed and evaporated to dryness in a Speed-vac concentrator. The sample was reconstituted to original plasma volume with 200 ml of distilled water. Duplicate […] aliquots were assayed for Aα 17-21 epitope containing peptide (Aα 1-21) as described in this Example. […]

whole blood = assay: In vitro production of Aα 17-21 epitope containing peptide in whole blood, ionophore incubation time; assay type: cell-based, human; design: dose or concentration left out as unconfirmed
Method: Calcium ionophore A23187 was added to replicate 1.0 ml aliquots of freshly-drawn heparinized whole blood as described above, to a final concentration of 150 mM. Additional control aliquots of blood received DMSO at a concentration of 0.2%. The blood aliquots were incubated at 37° for various time intervals ranging up to 60 minutes. Following the incubation, plasma was prepared, processed and assayed as above.

## Gly-Pro-Arg-Val-Val (GPRVV; printed: Gly-Pro-Arg-Val-Val) [Aα 17-21]
Guinea Pig (#3)
  Inhibitory Concentration (IC₅₀) picomoles Guinea Pig (#3): 10 picomoles
[1]
  Inhibitory Concentration (IC₅₀) picomoles Rabbit (#20): 1.6 picomoles

## CNc1ccc2oc(C[C@H]3O[C@@]4(CC[C@H]3C)O[C@H]([C@H](C)C(=O)c3ccc[nH]3)[C@H](C)C[C@H]4C)nc2c1C(=O)O [A23187]
[2]; Normal individuals
  Aα 17-21 epitope containing peptide produced per ml of plasma, A23187: 4.2 pM per ml of plasma and 4.6 pM per ml of plasma
[2]; PiZZ individuals
  Aα 17-21 epitope containing peptide produced per ml of plasma, A23187: 8.4 pM per ml of plasma and 26.5 pM per ml of plasma and 20.5 pM per ml of plasma and 17.8 pM per ml of plasma
Whole human blood; Ionophore Concentration 5 (unit uncertain)
  Aα 17-21 Epitope Containing (picomoles per ml blood): 1.2 picomoles per ml blood
Whole human blood; Ionophore Concentration 15 (unit uncertain)
  Aα 17-21 Epitope Containing (picomoles per ml blood): 1.6 picomoles per ml blood
Whole human blood; Ionophore Concentration 25 (unit uncertain)
  Aα 17-21 Epitope Containing (picomoles per ml blood): 2.6 picomoles per ml blood
Whole human blood; Ionophore Concentration 50 (unit uncertain)
  Aα 17-21 Epitope Containing (picomoles per ml blood): 2.8 picomoles per ml blood
Whole human blood; Ionophore Concentration 100 (unit uncertain)
  Aα 17-21 Epitope Containing (picomoles per ml blood): 4.0 picomoles per ml blood
Whole human blood; Ionophore Concentration 150 (unit uncertain)
  Aα 17-21 Epitope Containing (picomoles per ml blood): 4.1 picomoles per ml blood
Whole human blood; Ionophore Concentration 200 (unit uncertain)
  Aα 17-21 Epitope Containing (picomoles per ml blood): 3.8 picomoles per ml blood
Whole human blood; whole human blood
  concentration giving optimal production of Aα 17-21 epitope-containing peptide: 150 mM
Whole blood; Incubation Time 2.5 minutes
  Aα 17-21 Epitope (picomoles/ml plasma): 2.3 picomoles/ml plasma
Whole blood; Incubation Time 7.5 minutes
  Aα 17-21 Epitope (picomoles/ml plasma): 2.8 picomoles/ml plasma
Whole blood; Incubation Time 10.0 minutes
  Aα 17-21 Epitope (picomoles/ml plasma): 3.5 picomoles/ml plasma
Whole blood; Incubation Time 15.0 minutes
  Aα 17-21 Epitope (picomoles/ml plasma): 3.7 picomoles/ml plasma
Whole blood; Incubation Time 20.0 minutes
  Aα 17-21 Epitope (picomoles/ml plasma): 3.7 picomoles/ml plasma
Whole blood; Incubation Time 25.0 minutes
  Aα 17-21 Epitope (picomoles/ml plasma): 3.8 picomoles/ml plasma
Whole blood; Incubation Time 30.0 minutes
  Aα 17-21 Epitope (picomoles/ml plasma): 3.8 picomoles/ml plasma
Whole blood; Incubation Time 40.0 minutes
  Aα 17-21 Epitope (picomoles/ml plasma): 3.6 picomoles/ml plasma
Whole blood; Incubation Time 50.0 minutes
  Aα 17-21 Epitope (picomoles/ml plasma): 3.1 picomoles/ml plasma
Whole blood; Incubation Time 60.0 minutes
  Aα 17-21 Epitope (picomoles/ml plasma): 3.2 picomoles/ml plasma
Whole blood; Incubation Time <1.0 minutes
  Aα 17-21 Epitope (picomoles/ml plasma): 0.7 picomoles/ml plasma
